Source: the supplement of paper PMC10307832

Experiments:
Test in all cases: relative viability (nuclei count vs DMSO), 5 days (fraction); higher = more cells survive
Entinostat = compound: Nc1ccccc1NC(=O)c1ccc(CNC(=O)OCc2cccnc2)cc1 [Entinostat]
How it was run: (§1)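 Acceptance criteria were a control CV below 25% and at least one doubling per plate. Lung cancer cell lines in 1536-well plates got five library-drug doses (not always all listed) √10 apart by pinning and were left 5 days with no medium change. Viability divides treated-well nuclei by vehicle-well nuclei and is the median across plates. Nuclei were counted by MetaXpress from 4× Hoechst images.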

SGI-1776 = compound: CN1CCC(CNc2ccc3ncc(-c4cccc(OC(F)(F)F)c4)n3n2)CC1 [SGI-1776]
How it was run: as §1

[1] = compound: C1COCCN1C2=NC(=NC3=C2OC4=C3C=CC=N4)C5=CC(=CC=C5)NC(=O)C6=CN=C(C=C6)N
How it was run: as §1

Row | Cell Line | relative viability (Entinostat; 0.02 µM) | relative viability (Entinostat; 0.06325 µM) | relative viability (Entinostat; 0.2 µM) | relative viability (Entinostat; 0.6325 µM) | relative viability (Entinostat; 2 µM) | relative viability (SGI-1776; 0.08 µM) | relative viability (SGI-1776; 0.8 µM) | relative viability (SGI-1776; 2.53 µM) | relative viability (SGI-1776; 8 µM) | relative viability ([1]; 0.02 µM) | relative viability ([1]; 0.06325 µM) | relative viability ([1]; 0.2 µM) | relative viability ([1]; 0.6325 µM) | relative viability ([1]; 2 µM)
1 | SW 1573 | 0.998 | 1.11 | 1.09 | 1 | 0.874 | 1.06 | 0.965 | 0.959 | 0.754 | 0.954 | 1.09 | 1.03 | 0.918 | 0.611
2 | LU99A | 0.918 | 0.93 | 0.871 | 0.69 | 0.603 | 0.948 | 1.03 | 0.964 | 0.861 | 0.966 | 0.956 | 0.859 | 0.777 | 0.564
3 | NCI-H1299 | 1.03 | 1 | 0.994 | 0.85 | 0.727 | 1.03 | 1.01 | 0.996 | 0.946 | 0.991 | 1.1 | 1.03 | 1.02 | 0.868
4 | NCI-H1355 | 0.975 | 0.918 | 0.823 | 0.638 | 0.523 | 1.01 | 1.06 | 0.994 | 0.888 | 0.967 | 1.04 | 0.998 | 0.959 | 0.888
5 | HARA | 0.955 | 1.06 | 1.18 | 0.805 | 0.488 | 1.02 | 1.13 | 1 | 0.75 | 1.06 | 0.834 | 1.02 | 0.976 | 0.908
6 | LXF-289 | 1 | 0.978 | 0.952 | 0.711 | 0.63 | 1.01 | 1.05 | 1.05 | 0.959 | 1.06 | 1.03 | 1.07 | 0.995 | 0.8
7 | 201T | 1.04 | 1.04 | 1.03 | 0.712 | 0.624 | 1.01 | 0.991 | 0.964 | 0.891 | 0.963 | 0.994 | 0.985 | 1 | 0.897
8 | HCC-827 | 1.01 | 0.986 | 0.954 | 0.657 | 0.535 | 1.08 | 1.09 | 1.13 | 0.968 | 1.03 | 1.07 | 1.07 | 1.1 | 0.941
9 | NCI-H1703 | 1.05 | 1.3 | 1.33 | 1.03 | 0.646 | 0.909 | 0.796 | 0.588 | 0.218 | 0.805 | 0.975 | 0.76 | 0.685 | 0.505
10 | NCI-H1975 | 0.942 | 0.826 | 0.784 | 0.466 | 0.267 | 1.06 | 1 | 0.925 | 0.79 | 0.881 | 0.968 | 0.895 | 0.874 | 0.684
11 | NCI-H2023 | 0.849 | 0.786 | 0.495 | 0.166 | 0.0931 | 0.983 | 1.04 | 0.853 | 0.598 | 1.08 | 1.13 | 0.85 | 0.83 | 0.496
12 | ChaGo-K-1 | 1.04 | 0.934 | 1.11 | 0.961 | 0.881 | 1.06 | 1.01 | 0.949 | 0.855 | 0.949 | 1.07 | 0.897 | 1.01 | 0.837
13 | COR-L 105 | 0.947 | 1.14 | 1.06 | 0.747 | 0.371 | 1.09 | 1.01 | 0.949 | 0.722 | 0.868 | 0.717 | 0.751 | 0.695 | 0.591
14 | NCI-H2170 | 0.995 | 0.996 | 0.984 | 0.708 | 0.525 | 0.947 | 1 | 0.961 | 0.893 | 1 | 1.07 | 1.06 | 0.995 | 0.773
15 | A549 | 1.02 | 1.03 | 0.901 | 0.842 | 0.508 | 0.992 | 1.01 | 0.959 | 0.795 | 1.05 | 1.1 | 0.97 | 0.991 | 0.471
16 | NCI-H1993 | 0.986 | 1.02 | 0.899 | 0.805 | 0.645 | 0.926 | 1.04 | 0.924 | 0.733 | 0.981 | 0.953 | 0.797 | 0.946 | 0.736
17 | Calu-6 | 1.02 | 1.02 | 1.02 | 0.761 | 0.544 | 1.06 | 1.02 | 0.976 | 0.852 | 1.05 | 1.04 | 1.01 | 0.998 | 0.685
18 | NCI-H1648 | 1.09 | 1 | 0.823 | 0.639 | 0.526 | 1 | 0.884 | 0.844 | 0.767 | 0.93 | 0.788 | 0.853 | 0.538 | 0.794
19 | NCI-H1623 | 1 | 0.937 | 0.918 | 0.625 | 0.462 | 0.977 | 0.967 | 0.951 | 0.897 | 1.07 | 0.943 | 0.895 | 0.924 | 0.853
20 | NCI-H322M | 1.02 | 1.11 | 1.14 | 0.961 | 0.859 | 0.975 | 1.01 | 1.05 | 0.69 | 0.903 | 0.923 | 0.944 | 0.854 | 0.725
21 | NCI-H2405 | 1.03 | 1.15 | 0.972 | 0.915 | 0.609 | 1.04 | 1.08 | 0.793 | 0.826 | 0.987 | 1.05 | 0.97 | 0.953 | 0.779
22 | HCC-44 | 0.99 | 0.858 | 0.773 | 0.414 | 0.275 | 1.02 | 0.957 | 0.93 | 0.962 | 0.986 | 0.919 | 0.97 | 1.07 | 0.959
23 | HCC-78 | 0.991 | 1.09 | 0.65 | 0.467 | 0.343 | 1.09 | 1.04 | 0.975 | 0.866 | 0.935 | 1.06 | 0.966 | 0.892 | 0.832
24 | COR-L23 | 1 | 1.02 | 0.904 | 0.555 | 0.227 | 1.06 | 1.07 | 1.05 | 0.883 | 0.981 | 1.2 | 1.18 | 1.09 | 0.681
